Usually melting point stands for the temperature, or range, at which the solid turns liquid.

Each structure is given as a SMILES string.

For the compound `Cn1cc(C(=O)NC=C=Cc2ccccc2-c2ccc(Br)cc2)c(C(F)(F)F)n1` [Compound 2.123, 1-Methyl-3-trifluoromethyl-1H-pyrazole-4-carboxylic acid (4′-bromobiphenyl-2-yl)propa-1,2-dienyl-amide], the melting point is 146 to 149 °C. Next, `C#CCN(C(=O)c1cn(C)cc1C(F)(F)F)c1cccc2c1C(C)CC2(C)C` (stereo not drawn) [Compound 10.3, 1-methyl-4-trifluoromethyl-1H-pyrrole-3-carboxylic acid prop-2-ynyl-(1,1,3-trimethylindan-4-yl)amide]: 142 to 144 °C; `Cn1cc(C(=O)NCC#Cc2ccccc2-c2ccc(Br)cc2)c(C(F)(F)F)n1` [Compound 2.010, 1-Methyl-3-trifluoromethyl-1H-pyrazole-4-carboxylic acid (4′-bromobiphenyl-2-yl)prop-2-ynyl-amide]: 171 to 172 °C.

The values above are taken from patent publication US7332518B2, “Carboxamides as fungicides in agriculture” (Syngenta Crop Protection, Inc., priority 2001, dated 2008).
